Our source for the Log reduction and log reduction values is US12419305B2, “Antimicrobial compositions” (Firmenich SA, priority 2018, dated 2025).

Where two headings read alike, the source gives them in different places.

In test [1] the test system is Pseudomonas aeruginosa ATCC 15442. Nature of the test: BCT test (bacterial contact time), 60 s, log reduction / effect fraction; CI by Compusyn. It counts as cell-based. The following applies: BCT 60 s, in 25% EtOH; for log reduction at 0.3 % strength: Dose 0.3 % w/v; for log reduction at 0.45 % strength: Dose 0.45 % w/v. The procedure: (§1) E. coli, S. aureus, P. aeruginosa, and S. enterica: Separate suspensions of the E. coli ATCC 10536 strain, S. aureus ATCC 6538 strain, Pseudomonas aeruginosa ATCC 15442 strain, and the Salmonella enterica ATCC 10708 strain were prepared as follows: Stock cultures (stored at −80° C.) were thawed and sub-cultured onto Tryptic Soy Agar (TSA) agar plate media, and incubated at 37° C. for 24 h to obtain single colonies. Single colonies of the primary cultures were streaked onto TSA plates and incubated at 37° for 24 h to generate secondary cultures. Single colonies of secondary cultures picked and used to inoculate into 50 mL of TSB broth. The inoculated TSB broth was incubated at 37° C. at 180 rpm for 18 h. Aliquots (0.5 ml) of the 18 h culture were inoculated into 50 ml of fresh TSB broth, and incubated at 37° C. at 180 rpm for 2-3 hours. When the OD600 nm value of the broth reached 1-2, cells were harvested by centrifugation at 5000 rpm for 10 min, and then resuspended in fresh TSB broth at a concentration of 1-5×10^8 CFU/mL. These suspensions were used as the bacterial suspensions for the BCT test.
(§2) BCT Test: Test compositions at a range of concentrations (either combinations of more than one perfume ingredient, and comparative compositions comprising the single perfume ingredients) were prepared in ethanol. Five replicates of each test composition were added into 96-well microtiter plates (120 μl per well), with row B containing control compositions containing the ethanol solution alone. 120 μl of bacterial cell suspensions at a concentration of approximately 1×10^8 bacteria per mL (as prepared above) were added to each well of the microtiter plate. The bacterial suspensions were incubated with the test solutions for 45, 60, or 120 seconds. Following the incubation of the bacterial suspensions with the test solutions, serial dilutions of the bacterial suspensions were generated (three serial 1:10 dilutions, followed by 17 serial 1:2 dilutions), in multiwell microtiter plates.
(§3) Each plate was sealed and incubated at 37° C. under agitation (180 rpm). After incubation, the turbidity of the wells (OD600 nm) was determined using a Tecan microplate reader. Turbid wells were regarded as positive growth, due to the presence of viable cells. The total number of viable cells (log CFU) for each sample was calculated. And the log reduction for each test composition at the final concentration (dose) was calculated against the control sample of the ethanol solution.
(§4) Determination of Synergy via the Combination Index (CI): The CI was calculated using Compusyn software (ComboSyn, Inc., as created by Dr. Dorothy Chou in 2005), according to the manufacturer's instructions. The concentration of each test composition (combinations of more than one perfume ingredient, and comparative compositions comprising the single perfume ingredients used to generate the combination) and their corresponding effect fraction was entered, and the corresponding CI calculated.
(§5) When the calculated CI values were less than 0.9, the combination of perfume ingredients was regarded as having synergistic effect. When the calculated CI was between 1.0 a 0.9, the combination of perfume ingredients was regarded as having an additive effect. When the calculated CI was greater than 1.0, the combination of perfume ingredients was regarded as having an antagonistic effect.

The subject of another test is E. coli ATCC 10536. In words: BCT test (bacterial contact time), 45 s, log reduction / effect fraction; CI by Compusyn. The following applies: 45 s, in 20% EtOH; for log reduction at 0.55 % strength: dose 0.550 % w/v; for log reduction at 0.6 % strength: dose 0.600 % w/v. It counts as cell-based, Escherichia coli. As for the experimental part: as §1, §2, §3, §4, §5

A further test deals with S. aureus ATCC 6538. Nature of the test: BCT test (bacterial contact time), 60 s, log reduction / effect fraction; CI by Compusyn. The following applies: Staphylococcus aureus, ATCC6538, 1 min, 60 s, in 25% EtOH; for log reduction at 0.5 % strength: dose 0.500 % w/v; for log reduction at 0.6 % strength: dose 0.600 % w/v; for log reduction at 0.7 % strength: dose 0.700 % w/v. In kind it is cell-based, Staphylococcus aureus. The procedure: as §1, §2, §3, §4, §5

Setting [2] is: Pseudomonas aeruginosa, ATCC15442, 1 min.
The mark [3] stands for this setting: Escherichia coli, ATCC10536, 45 s.
Where [4] appears, read: Pseudomonas aeruginosa, ATCC15442, 1 min, read-out: Log reduction.
Where [5] appears, read: Escherichia coli, ATCC10536, 45 s, read-out: Log reduction.

`O=Cc1ccc2c(c1)OCO2` [Heliotropine, 1,3-benzodioxole-5-carbaldehyde]: the Log reduction in test [1] (Dose 0.2 % w/v) came to 0.00. Besides, the log reduction at 0.2 % strength in test [1] (Pseudomonas aeruginosa, ATCC15442, 1 min, Dose 0.2 % w/v) is 0. In addition, in test [1] (setting [2]), the log reduction at 0.3 % strength worked out at 0.6 and the log reduction at 0.45 % strength was 4.1. In addition, in test [1] (Pseudomonas aeruginosa, ATCC15442, 1 min, Dose 0.4 % w/v), the log reduction at 0.4 % strength is 3.4. Further, the log reduction at 0.55 % strength in test [1] (Pseudomonas aeruginosa, ATCC15442, 1 min, Dose 0.55 % w/v) came to 7.6. Besides, the log reduction at 0.45 % strength with E. coli ATCC 10536 (Escherichia coli, ATCC10536, 45 s, dose 0.450 % w/v) was determined as 0.1. Moreover, in the test with E. coli ATCC 10536 (setting [3]), the log reduction at 0.55 % strength came out at 5.3 and the log reduction at 0.6 % strength was 7.3. For the same compound, the Log reduction in the test on E. coli ATCC 10536 (dose 0.450 % w/v) amounted to 0.1. In the test on S. aureus ATCC 6538, the log reduction at 0.5 % strength is 0.7, the log reduction at 0.6 % strength worked out at 2.7 and the log reduction at 0.7 % strength is 6.1. The log reduction at 0.75 % strength with S. aureus ATCC 6538 (dose 0.750 % w/v) is 7.1. For the same compound, in the test with S. aureus ATCC 6538 (dose 1.000 % w/v), the log reduction at 1 % strength worked out at 7.1.
For `COc1ccc(C=O)cc1` [Aldehyde Anisic, 4-methoxybenzaldehyde], in test [1] (setting [4]), the log reduction at 0.3 % strength worked out at 0.6 and the log reduction at 0.45 % strength came out at 6.2. In test [1] (Pseudomonas aeruginosa, ATCC15442, 1 min, Dose 0.35 % w/v), the log reduction at 0.35 % strength is 1.6. Also, the log reduction at 0.475 % strength in test [1] (Pseudomonas aeruginosa, ATCC15442, 1 min, Dose 0.475 % w/v) turned out to be 5.9. In test [1] (Pseudomonas aeruginosa, ATCC15442, 1 min, Dose 0.5 % w/v), the log reduction at 0.5 % strength turned out to be 7. Besides, the log reduction at 0.4 % strength in the test on E. coli ATCC 10536 (Escherichia coli, ATCC10536, 45 s, dose 0.400 % w/v) was 0.3. Further, in the test with E. coli ATCC 10536 (Escherichia coli, ATCC10536, 45 s, dose 0.450 % w/v, read-out: Log reduction), the log reduction at 0.45 % strength was determined as 0.6. For the same compound, the log reduction at 0.5 % strength in the test with E. coli ATCC 10536 (Escherichia coli, ATCC10536, 45 s, dose 0.500 % w/v) came out at 2.7. Also, in the test with E. coli ATCC 10536 (setting [5]), the log reduction at 0.55 % strength turned out to be 6.7 and the log reduction at 0.6 % strength worked out at 7.3. For the same compound, in the test on S. aureus ATCC 6538 (read-out: Log reduction), the log reduction at 0.5 % strength stood at 0.7, the log reduction at 0.6 % strength is 2.3 and the log reduction at 0.7 % strength turned out to be 5.9. Also, the log reduction at 0.65 % strength in the test on S. aureus ATCC 6538 (dose 0.650 % w/v) is 3.5. Further, in the test with S. aureus ATCC 6538 (dose 0.800 % w/v), the log reduction at 0.8 % strength was found to be 6.9.
